Values of other authors in US20200315976A1, “Encapsulation Methods and Compositions” (Prodo Laboratories, Inc., priority 2017, published 2020).

System: islets

Which “effect on islets during conformal encapsulation” value does the source give for `CCOC(=O)c1ccccc1-c1c2cc(Br)c(=O)c(Br)c-2oc2c(Br)c([O-])c(Br)cc12.[K+]` [Ethyl eosin, ethyl eosin] here?
Its value is “islet death”.
